Experimental data published in article PMC5218480 (PLoS ONE, 2017).

Tested on: MV-4-11 cells
Experiment: Gene expression microarray analysis (Affymetrix PrimeView) and GSEA
Format: cell-based, human
Parameters: RFU PODN (11730768_x_at) / Fold change /veh PODN (11730768_x_at) / RFU LINC00158 (11744669_a_at) / Fold change /veh LINC00158 (11744669_a_at) / RFU DUSP10 (11751237_a_at) / Fold change /veh DUSP10 (11751237_a_at) / RFU ID3 (11757404_x_at) / Fold change /veh ID3 (11757404_x_at) / RFU PLEKHG5 (11737974_s_at) / Fold change /veh PLEKHG5 (11737974_s_at) / RFU LRRC4B (11730491_at) / Fold change /veh LRRC4B (11730491_at) / RFU GIMAP4 (11747438_a_at) / Fold change /veh GIMAP4 (11747438_a_at) / RFU KRT8 (11758183_x_at) / Fold change /veh KRT8 (11758183_x_at) / RFU CNN1 (11734310_a_at) / Fold change /veh CNN1 (11734310_a_at) / RFU VPS37D (11726825_at) / Fold change /veh VPS37D (11726825_at) / RFU C10orf10 (11716522_x_at) / Fold change /veh C10orf10 (11716522_x_at) / RFU KIR2DL2 /// KIR2DL4 /// KIR2DL5A /// KIR2DL5B /// KIR2DS1 /// KIR2DS2 /// KIR2DS3 /// KIR2DS4 /// KIR3DL3 /// KIR3DL3 /// KIR3DS1 (11738374_at) / Fold change /veh KIR2DL2 /// KIR2DL4 /// KIR2DL5A /// KIR2DL5B /// KIR2DS1 /// KIR2DS2 /// KIR2DS3 /// KIR2DS4 /// KIR3DL3 /// KIR3DL3 /// KIR3DS1 (11738374_at) / RFU C1QL1 (11718748_at) / Fold change /veh C1QL1 (11718748_at) / RFU TMPRSS4 (11747572_a_at) / Fold change /veh TMPRSS4 (11747572_a_at) / RFU HAMP (11756126_x_at) / Fold change /veh HAMP (11756126_x_at) / RFU RNFT2 (11725882_a_at) / Fold change /veh RNFT2 (11725882_a_at) / RFU NR4A2 (11747474_a_at) / Fold change /veh NR4A2 (11747474_a_at) / RFU ABCC12 (11746883_a_at) / Fold change /veh ABCC12 (11746883_a_at) / RFU TMEM136 (11760407_x_at) / Fold change /veh TMEM136 (11760407_x_at) / RFU CLDN22 /// WWC2 (11732394_at) / Fold change /veh CLDN22 /// WWC2 (11732394_at) / RFU HLA-DPB1 (11760878_x_at) / Fold change /veh HLA-DPB1 (11760878_x_at) / RFU SPINT1 (11716480_a_at) / Fold change /veh SPINT1 (11716480_a_at) / RFU GAP43 (11754022_s_at) / Fold change /veh GAP43 (11754022_s_at) / RFU A4GNT (11735810_at) / Fold change /veh A4GNT (11735810_at) / RFU PRB3 (11715151_x_at) / Fold change /veh PRB3 (11715151_x_at) / RFU TUBB4B (11761932_at) / Fold change /veh TUBB4B (11761932_at) / RFU CAPN14 (11732068_a_at) / Fold change /veh CAPN14 (11732068_a_at) / RFU TMCC2 (11721928_a_at) / Fold change /veh TMCC2 (11721928_a_at) / RFU IRGQ (11745062_a_at) / Fold change /veh IRGQ (11745062_a_at) / RFU FAM174B (11720279_a_at) / Fold change /veh FAM174B (11720279_a_at) / RFU TMPRSS4 (11748680_a_at) / Fold change /veh TMPRSS4 (11748680_a_at) / RFU FAM212B (11763350_a_at) / Fold change /veh FAM212B (11763350_a_at) / RFU PLEKHG5 (11743358_a_at) / Fold change /veh PLEKHG5 (11743358_a_at) / RFU ZSCAN30 (11745921_a_at) / Fold change /veh ZSCAN30 (11745921_a_at) / RFU CMKLR1 (11741424_a_at) / Fold change /veh CMKLR1 (11741424_a_at) / RFU LOC101060620 /// MAPK8IP1 (11723275_at) / Fold change /veh LOC101060620 /// MAPK8IP1 (11723275_at) / RFU SPTSSB (11747773_x_at) / Fold change /veh SPTSSB (11747773_x_at) / RFU PRSS12 (11739890_at) / Fold change /veh PRSS12 (11739890_at) / RFU BIN1 (11741810_x_at) / Fold change /veh BIN1 (11741810_x_at) / RFU WNT11 (11732464_a_at) / Fold change /veh WNT11 (11732464_a_at) / RFU C10orf10 (11716521_a_at) / Fold change /veh C10orf10 (11716521_a_at) / RFU C5orf56 (11738089_at) / Fold change /veh C5orf56 (11738089_at) / RFU CYB561 (11721691_x_at) / Fold change /veh CYB561 (11721691_x_at) / RFU ANKRD19P (11752326_a_at) / Fold change /veh ANKRD19P (11752326_a_at) / RFU OR2T12 /// OR2T33 /// OR2T8 (11738714_s_at) / Fold change /veh OR2T12 /// OR2T33 /// OR2T8 (11738714_s_at) / RFU VCAN (11748164_a_at) / Fold change /veh VCAN (11748164_a_at) / RFU JSRP1 (11732532_at) / Fold change /veh JSRP1 (11732532_at) / RFU KRTAP10-11 (11738290_x_at) / Fold change /veh KRTAP10-11 (11738290_x_at) / RFU MYO3A (11730013_a_at) / Fold change /veh MYO3A (11730013_a_at) / RFU EBF3 (11725865_a_at) / Fold change /veh EBF3 (11725865_a_at) / RFU CAMK2N1 (11719241_x_at) / Fold change /veh CAMK2N1 (11719241_x_at) / RFU C5orf56 (11738088_a_at) / Fold change /veh C5orf56 (11738088_a_at) / RFU OLFML3 (11715873_a_at) / Fold change /veh OLFML3 (11715873_a_at) / RFU LOC100653217 /// NTM (11731650_a_at) / Fold change /veh LOC100653217 /// NTM (11731650_a_at) / RFU MAPK11 (11762145_a_at) / Fold change /veh MAPK11 (11762145_a_at) / RFU FIZ1 (11724087_x_at) / Fold change /veh FIZ1 (11724087_x_at) / RFU OASL (11726364_x_at) / Fold change /veh OASL (11726364_x_at) / RFU SOX15 (11748057_x_at) / Fold change /veh SOX15 (11748057_x_at) / RFU CD79A (11719716_a_at) / Fold change /veh CD79A (11719716_a_at) / RFU HIST1H1D (11736915_at) / Fold change /veh HIST1H1D (11736915_at) / RFU CASKIN2 (11723855_a_at) / Fold change /veh CASKIN2 (11723855_a_at) / RFU LOC730098 (11760151_x_at) / Fold change /veh LOC730098 (11760151_x_at) / RFU OR4N2 (11742367_at) / Fold change /veh OR4N2 (11742367_at) / RFU PRRT2 (11749266_a_at) / Fold change /veh PRRT2 (11749266_a_at) / RFU SNX32 (11753110_a_at) / Fold change /veh SNX32 (11753110_a_at) / RFU CDHR5 (11726645_a_at) / Fold change /veh CDHR5 (11726645_a_at) / RFU RCAN1 (11760418_a_at) / Fold change /veh RCAN1 (11760418_a_at) / RFU FAM167A (11723789_a_at) / Fold change /veh FAM167A (11723789_a_at) / RFU FAM26E (11764081_at) / Fold change /veh FAM26E (11764081_at) / RFU ISYNA1 (11749810_s_at) / Fold change /veh ISYNA1 (11749810_s_at) / RFU ACY1 (11761880_at) / Fold change /veh ACY1 (11761880_at) / RFU 11764098_at / Fold change /veh 11764098_at / RFU SAMD14 (11745864_x_at) / Fold change /veh SAMD14 (11745864_x_at) / RFU NPB (11741838_a_at) / Fold change /veh NPB (11741838_a_at) / RFU TMPRSS6 (11731388_a_at) / Fold change /veh TMPRSS6 (11731388_a_at) / RFU KRTAP10-2 (11738614_at) / Fold change /veh KRTAP10-2 (11738614_at) / RFU ARHGAP8 /// PRR5-ARHGAP8 (11727945_x_at) / Fold change /veh ARHGAP8 /// PRR5-ARHGAP8 (11727945_x_at) / RFU KRTAP5-7 /// NADSYN1 (11734609_at) / Fold change /veh KRTAP5-7 /// NADSYN1 (11734609_at) / RFU RASL12 (11751679_a_at) / Fold change /veh RASL12 (11751679_a_at) / RFU CDKN2B (11736163_a_at) / Fold change /veh CDKN2B (11736163_a_at) / RFU PRF1 (11729649_at) / Fold change /veh PRF1 (11729649_at) / RFU, ZNF638 /// ZNF638-IT1 / Fold change vs veh, ZNF638 /// ZNF638-IT1 / RFU, PANK3 / Fold change vs veh, PANK3 / RFU, SH3YL1 / Fold change vs veh, SH3YL1 / RFU, ZEB2 / Fold change vs veh, ZEB2 / RFU, NRIP1 / Fold change vs veh, NRIP1 / RFU, PTTG1IP / Fold change vs veh, PTTG1IP / RFU, CAPN2 / Fold change vs veh, CAPN2 / RFU, MED14 / Fold change vs veh, MED14 / RFU, SNORA58 / Fold change vs veh, SNORA58 / RFU, C1orf63 / Fold change vs veh, C1orf63 / RFU, LRRFIP1 / Fold change vs veh, LRRFIP1 / RFU, NDUFAF7 / Fold change vs veh, NDUFAF7 / RFU, SLC12A2 / Fold change vs veh, SLC12A2 / RFU, IBTK / Fold change vs veh, IBTK / RFU, ESF1 / Fold change vs veh, ESF1 / Fold change vs veh, TMEM50B / RFU, TAOK1 / Fold change vs veh, TAOK1 / RFU, ACBD3 / Fold change vs veh, ACBD3 / RFU, TMA16 / Fold change vs veh, TMA16 / RFU, RWDD3 / Fold change vs veh, RWDD3 / RFU, BCAT1 / Fold change vs veh, BCAT1 / RFU, EDEM3 / Fold change vs veh, EDEM3 / RFU, TMEM33 / Fold change vs veh, TMEM33 / RFU, WDR75 / Fold change vs veh, WDR75 / RFU, AHCTF1 / Fold change vs veh, AHCTF1 / RFU, TFRC / Fold change vs veh, TFRC / RFU, ZDHHC17 / Fold change vs veh, ZDHHC17 / RFU, NOM1 / Fold change vs veh, NOM1 / RFU, ARL8B / Fold change vs veh, ARL8B / RFU, ZBTB11 / Fold change vs veh, ZBTB11 / RFU, TAMM41 / Fold change vs veh, TAMM41 / RFU, KIAA1704 /// LOC100996395 / Fold change vs veh, KIAA1704 /// LOC100996395 / RFU, ING1 / Fold change vs veh, ING1 / RFU, TRMT61B / Fold change vs veh, TRMT61B / RFU, FUBP3 / Fold change vs veh, FUBP3 / RFU, TP53 / Fold change vs veh, TP53 / RFU, TNKS2 / Fold change vs veh, TNKS2 / RFU, ZFP14 / Fold change vs veh, ZFP14 / RFU, ACTR2 / Fold change vs veh, ACTR2 / RFU, PPP3R1 / Fold change vs veh, PPP3R1 / RFU, PIK3R1 / Fold change vs veh, PIK3R1 / RFU, HNRNPA1 / Fold change vs veh, HNRNPA1 / RFU, RNF170 / Fold change vs veh, RNF170 / RFU, ZNF28 / Fold change vs veh, ZNF28 / RFU, RNGTT / Fold change vs veh, RNGTT / RFU, OGT / Fold change vs veh, OGT / RFU, BRD1 / Fold change vs veh, BRD1 / RFU, MARS / Fold change vs veh, MARS / RFU, ZNF655 / Fold change vs veh, ZNF655 / RFU, FAHD1 / Fold change vs veh, FAHD1 / RFU, BDP1 / Fold change vs veh, BDP1 / RFU, LRRCC1 / Fold change vs veh, LRRCC1 / RFU, ARID1A / Fold change vs veh, ARID1A / RFU, ZNF146 / Fold change vs veh, ZNF146 / RFU, ZNF330 / Fold change vs veh, ZNF330 / RFU, GPN3 / Fold change vs veh, GPN3 / RFU, C9orf123 / Fold change vs veh, C9orf123 / RFU, N4BP2L2 / Fold change vs veh, N4BP2L2 / RFU, ARFIP1 / Fold change vs veh, ARFIP1 / RFU, FAM179B / Fold change vs veh, FAM179B / RFU, BCL10 / Fold change vs veh, BCL10 / RFU, UHRF1BP1L / Fold change vs veh, UHRF1BP1L / RFU, BET1 / Fold change vs veh, BET1 / RFU, CNOT2 / Fold change vs veh, CNOT2 / RFU, ZNF268 / Fold change vs veh, ZNF268 / Fold change vs veh, ZNF507 / RFU, DGCR2 / Fold change vs veh, DGCR2 / RFU, WDSUB1 / Fold change vs veh, WDSUB1 / Fold change vs veh, HSP90B1 /// MIR3652 / RFU, ADSS / Fold change vs veh, ADSS / RFU, GK / Fold change vs veh, GK / RFU, ZNF148 / Fold change vs veh, ZNF148 / RFU, TAF9 / Fold change vs veh, TAF9 / RFU, SLC1A5 / Fold change vs veh, SLC1A5 / RFU, SLMO2 / Fold change vs veh, SLMO2 / RFU, ABCC4 / Fold change vs veh, ABCC4 / RFU, LOC101060439 /// RAP1B / Fold change vs veh, LOC101060439 /// RAP1B / RFU, RFX7 / Fold change vs veh, RFX7 / RFU, GTPBP10 / Fold change vs veh, GTPBP10 / RFU, CNEP1R1 / Fold change vs veh, CNEP1R1 / RFU, BIVM-ERCC5 /// ERCC5 / Fold change vs veh, BIVM-ERCC5 /// ERCC5 / RFU, ILF3 / Fold change vs veh, ILF3 / RFU 11762660_at / Fold change /veh 11762660_at / RFU VCAN (11757783_s_at) / Fold change /veh VCAN (11757783_s_at) / RFU DDX43 (11728927_at) / Fold change /veh DDX43 (11728927_at) / RFU KRT8 (11758188_x_at) / Fold change /veh KRT8 (11758188_x_at) / RFU NKD1 (11759106_at) / Fold change /veh NKD1 (11759106_at) / RFU SRD5A1 (11742802_a_at) / Fold change /veh SRD5A1 (11742802_a_at) / RFU TPSAB1 /// TPSB2 (11721975_s_at) / Fold change /veh TPSAB1 /// TPSB2 (11721975_s_at) / RFU GSTM3 (11746129_a_at) / Fold change /veh GSTM3 (11746129_a_at) / RFU IL23R (11737362_x_at) / Fold change /veh IL23R (11737362_x_at) / RFU TMEM51 (11727254_a_at) / Fold change /veh TMEM51 (11727254_a_at) / RFU PIWIL2 (11732686_x_at) / Fold change /veh PIWIL2 (11732686_x_at) / RFU ORM1 (11744905_x_at) / Fold change /veh ORM1 (11744905_x_at) / RFU CCDC152 (11743942_at) / Fold change /veh CCDC152 (11743942_at) / RFU ECM1 (11717891_a_at) / Fold change /veh ECM1 (11717891_a_at) / RFU IL23R (11748794_a_at) / Fold change /veh IL23R (11748794_a_at) / RFU TNFAIP8L3 (11732012_x_at) / Fold change /veh TNFAIP8L3 (11732012_x_at) / RFU MBOAT4 (11741988_at) / Fold change /veh MBOAT4 (11741988_at) / RFU 11764193_at / Fold change /veh 11764193_at / RFU TMEM53 (11763286_at) / Fold change /veh TMEM53 (11763286_at) / RFU MAGEB2 (11727129_at) / Fold change /veh MAGEB2 (11727129_at) / RFU TMEM200A (11744735_a_at) / Fold change /veh TMEM200A (11744735_a_at) / RFU CCDC152 (11751479_a_at) / Fold change /veh CCDC152 (11751479_a_at) / RFU FAM211A (11726209_a_at) / Fold change /veh FAM211A (11726209_a_at) / RFU RGS16 (11746705_a_at) / Fold change /veh RGS16 (11746705_a_at) / RFU VCAN (11755009_s_at) / Fold change /veh VCAN (11755009_s_at) / RFU RHOB (11743442_s_at) / Fold change /veh RHOB (11743442_s_at) / RFU RGS16 (11720943_a_at) / Fold change /veh RGS16 (11720943_a_at) / RFU RGS16 (11720944_at) / Fold change /veh RGS16 (11720944_at) / RFU, VPS4B / Fold change vs veh, VPS4B / RFU, CREB1 / Fold change vs veh, CREB1 / RFU, DNAJC13 / Fold change vs veh, DNAJC13 / RFU, GNAQ / Fold change vs veh, GNAQ / RFU, CDK5R1 / Fold change vs veh, CDK5R1 / RFU, ZRANB3 / Fold change vs veh, ZRANB3 / RFU, CUL4A / Fold change vs veh, CUL4A / RFU, CCNY / Fold change vs veh, CCNY / RFU, UFL1 / Fold change vs veh, UFL1 / RFU, COG3 / Fold change vs veh, COG3 / RFU, DIAPH2 / Fold change vs veh, DIAPH2 / RFU, SKA2 / Fold change vs veh, SKA2 / RFU, AFF3 / Fold change vs veh, AFF3 / RFU, LMF1 / Fold change vs veh, LMF1 / RFU, IPO11 / Fold change vs veh, IPO11 / RFU, DFFB / Fold change vs veh, DFFB / RFU, FOXP1 / Fold change vs veh, FOXP1 / RFU, CARD8 / Fold change vs veh, CARD8 / RFU, STRN3 / Fold change vs veh, STRN3 / RFU, ADK / Fold change vs veh, ADK / RFU, RASSF2 / Fold change vs veh, RASSF2 / RFU, WIPF1 / Fold change vs veh, WIPF1 / RFU, LARP1B / Fold change vs veh, LARP1B / RFU, RASA1 / Fold change vs veh, RASA1 / RFU, RB1 / Fold change vs veh, RB1 / RFU, PPFIA1 / Fold change vs veh, PPFIA1 / RFU, MAT2A / Fold change vs veh, MAT2A / RFU, CCT5 / Fold change vs veh, CCT5 / RFU, WDR92 / Fold change vs veh, WDR92 / RFU, CUX1 / Fold change vs veh, CUX1 / RFU, TTC7A / Fold change vs veh, TTC7A / RFU, TMEM135 / Fold change vs veh, TMEM135 / RFU, DEPTOR / Fold change vs veh, DEPTOR / RFU, CPM / Fold change vs veh, CPM / RFU, DNAJB6 / Fold change vs veh, DNAJB6 / RFU, CACNA2D3 / Fold change vs veh, CACNA2D3 / RFU, DTX4 / Fold change vs veh, DTX4 / RFU, TFCP2 / Fold change vs veh, TFCP2 / RFU, GMCL1 /// GMCL1P1 / Fold change vs veh, GMCL1 /// GMCL1P1 / RFU, AEBP2 / Fold change vs veh, AEBP2 / RFU, SNHG1 /// SNORD22 /// SNORD25 /// SNORD26 /// SNORD27 /// SNORD28 /// SNORD29 /// SNORD31 / Fold change vs veh, SNHG1 /// SNORD22 /// SNORD25 /// SNORD26 /// SNORD27 /// SNORD28 /// SNORD29 /// SNORD31 / Fold change (Aza/veh), C12orf56 (ProbeSet 11735607_a_at) / Fold change (ACY-1035/veh), C12orf56 (ProbeSet 11735607_a_at) / Fold change (Aza/veh), FGFR1OP (ProbeSet 11751329_s_at) / Fold change (ACY-1035/veh), FGFR1OP (ProbeSet 11751329_s_at) / Fold change (Aza/veh), VPS36 (ProbeSet 11739960_a_at) / Fold change (ACY-1035/veh), VPS36 (ProbeSet 11739960_a_at) / RFU SYPL1 (11715823_x_at) / Fold change /veh SYPL1 (11715823_x_at) / RFU IGFBP7 (11715501_s_at) / Fold change /veh IGFBP7 (11715501_s_at) / RFU REEP3 (11722064_at) / Fold change /veh REEP3 (11722064_at) / RFU IGLL1 (11728026_x_at) / Fold change /veh IGLL1 (11728026_x_at): dose or concentration left out as unconfirmed
Conditions: ProbeSet 11730252_s_at; LIST B

Q: For `Nc1ccc(-c2cccs2)cc1NC(=O)c1ccc2c(c1)cc(C1CC1)n2CCN1CCOCC1` [ACY-1035], which “Fold change vs veh, AHCTF1” value is on record?
A: 0.96
